Series [1] in a line: Dissolution rate of SR48692 capsules in deionized water pH 5.5 (USP Apparatus 2). In kind it is physicochemical. Particulars: at the end of the experiment of 60 minutes, water pH 5.5 (unbuffered), 37°C. The procedure: The dissolution rate of 25 mg SR48692 solid dispersion in hard gelatin capsules were measured in deionized water (900 ml, pH=5.5, unbuffered) at 37°C. A USP dissolution system (Apparatus 2) with a paddle speed of 100 RPM was used. Dissolution rate was monitored by UV (Hewlett Packard 8452A) at 234 nm.
A screening dissolution test was run in USP Apparatus 2 with water at pH 5.5 (unbuffered) at 37°C comparing the solid dispersion of this invention (Example 2) with unformulated (jet-milled) SR48692. The solid dispersions provide enormous dissolution enhancement with respect to pure drug and low impurity levels (0.4%).

Series [2] is described as follows: Solubility of SR48692 in polyethylene glycol/NaOH/water. Format: physicochemical. Particulars: PEG/NaOH/H2O; mole equivalents of NaOH per mole of drug 1.0 and less.

Bounds are passed on as bounds.

In turn, SR48692 showed a dissolved in series [1] of under 10%. Moreover, in series [2], the solubility result was “Inadequate”.
